# Like-named read-outs stand apart in the source and are kept apart here. Where a SMILES comes first, the peptide text is derived from it. Where no end group is shown, it is not given here. [ ]: non-standard residue; d: D form. Phg = N[C@H](C(=O)O)c1ccccc1; Nle = CCCC[C@H](N)C(=O)O; Aib = CC(C)(N)C(=O)O
# Experiments:
# [1] = target: T1, hGIPR (Homo sapiens, UniProt P48546); test: hGIPR-mediated cAMP induction assay in CHO cell line; assay type: cell-based; conditions: for GIP Receptor Relative Potency: against native GIP
# T1 construct: expressed in transfected cells; host or cells: CHO
# T1 sequence (P48546 22-466): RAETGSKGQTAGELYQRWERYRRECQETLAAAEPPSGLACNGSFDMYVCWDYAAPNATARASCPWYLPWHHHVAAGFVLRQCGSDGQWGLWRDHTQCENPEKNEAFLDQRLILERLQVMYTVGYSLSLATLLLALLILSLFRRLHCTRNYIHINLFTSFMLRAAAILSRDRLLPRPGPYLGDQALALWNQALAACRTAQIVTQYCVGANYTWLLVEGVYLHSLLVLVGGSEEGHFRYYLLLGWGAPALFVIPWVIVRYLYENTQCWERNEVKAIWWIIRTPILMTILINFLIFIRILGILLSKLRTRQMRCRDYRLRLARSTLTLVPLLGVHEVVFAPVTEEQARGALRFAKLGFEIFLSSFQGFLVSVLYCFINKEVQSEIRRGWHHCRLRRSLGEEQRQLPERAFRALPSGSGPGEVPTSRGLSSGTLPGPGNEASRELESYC
# Source text: The cAMP in the sample or standard competes with horseradish peroxidase (HRP)-labeled cAMP conjugate for binding sites on the anti-cAMP antibodies. In the absence of cAMP, most of the HRP-cAMP conjugate is bound to the antibody. Increasing concentrations of cAMP competitively decrease the amount of bound conjugate, thus decreasing measured HRP activity.
# Assay kit: CatchPoint™ Cyclic-AMP Fluorescent Assay Kit (Molecular Devices, Product # R8088)
# Cell lines: CHO hGLP1R, CHO hGIPR
# Cell seeding: CHO hGLP1R or CHO hGIPR cells: 10,000 cells/well/100 uL at 37° C. 5% CO2 overnight.
# Gently aspirate off media and wash the cells with KRBG Buffer, 100 uL/well.
# Incubate the plate for 10 min at room temperature. Then add the KRBG buffer with 3× final concentration of the tested samples (5-foled series diluted from 5,000 nM), 50 uL/well. Incubate the plate at 37° C. 5% CO2 for 30 min.
# Add 50 uL of Lysis buffer to each well and put the plate on a shaker for 10 min.
# Place 40 uL of samples and analyze in appropriate wells. And test the cAMP concentration in each sample by following the manufacture's instruction.
# Detect the fluorescence signal at Ex: 490 nm and Em: 530 nm. Transfer the FI signal to cAMP concentration by the cAMP standard curve. The Dose-response curve and EC50 were obtained by logistic fitting of Origin 8.
# [2] = target: T2, hGLP-1R (Homo sapiens, UniProt P43220); test: hGLP-1R-mediated cAMP induction assay in CHO cell line; assay type: cell-based;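 further: CHO cells expressing human GLP-1R, treated 30 min at 37 °C, intracellular cAMP measured by competitive fluorescent immunoassay and converted via a cAMP standard curve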
# T2 construct: expressed in transfected cells; host or cells: CHO
# T2 sequence (P43220 24-463): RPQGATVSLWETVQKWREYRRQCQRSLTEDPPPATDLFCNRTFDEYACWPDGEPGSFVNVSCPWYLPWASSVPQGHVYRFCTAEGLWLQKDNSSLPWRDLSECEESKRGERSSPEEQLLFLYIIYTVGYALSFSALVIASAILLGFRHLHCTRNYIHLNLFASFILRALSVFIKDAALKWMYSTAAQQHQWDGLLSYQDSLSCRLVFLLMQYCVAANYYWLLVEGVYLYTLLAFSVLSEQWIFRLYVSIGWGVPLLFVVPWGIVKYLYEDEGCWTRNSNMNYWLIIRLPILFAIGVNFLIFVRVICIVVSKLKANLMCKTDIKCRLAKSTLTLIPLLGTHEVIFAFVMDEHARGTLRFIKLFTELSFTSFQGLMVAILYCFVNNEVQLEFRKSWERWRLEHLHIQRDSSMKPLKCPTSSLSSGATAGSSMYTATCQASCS
compound,measurement,setting,value
CCCC[C@H](NC(=O)[C@H](Cc1ccc(O)cc1)NC(=O)[C@@H](NC(=O)[C@H](CO)NC(=O)[C@H](Cc1ccc(O)cc1)NC(=O)[C@H](CC(=O)O)NC(=O)[C@H](CO)NC(=O)[C@@H](NC(=O)[C@H](Cc1ccccc1)NC(=O)[C@@H](NC(=O)CNC(=O)[C@H](CCC(=O)O)NC(=O)C(C)(C)NC(=O)[C@@H](N)Cc1ccc(O)cc1)[C@@H](C)O)[C@@H](C)O)[C@@H](C)CC)C(=O)N[C@@H](CCC(=O)O)C(=O)N[C@@H](CCCCN)C(=O)N[C@H](C(=O)N[C@@H](Cc1c[nH]cn1)C(=O)N[C@@H](CCC(N)=O)C(=O)N[C@@H](CCC(N)=O)C(=O)N[C@@H](CC(=O)O)C(=O)N[C@@H](Cc1ccccc1)C(=O)N[C@H](C(=O)N[C@@H](CC(N)=O)C(=O)N[C@@H](Cc1c[nH]c2ccccc12)C(=O)N[C@@H](CC(C)C)C(=O)N[C@H](C(=O)N[C@@H](CCCNC(=N)N)C(=O)N[C@@H](CCC(N)=O)C(N)=O)C(C)C)C(C)C)[C@@H](C)CC [Compound 021] (H-Y[Aib]EGTFTSDYSIY[Nle]EKIHQQDFVNWLVRQ-NH2; N-terminus assumed),GIP Receptor Relative Potency,[1]; Table 3,21.7
CCCC[C@H](NC(=O)[C@H](Cc1ccc(O)cc1)NC(=O)[C@@H](NC(=O)[C@H](CO)NC(=O)[C@H](Cc1ccc(O)cc1)NC(=O)[C@H](CC(=O)O)NC(=O)[C@H](CO)NC(=O)[C@@H](NC(=O)[C@H](Cc1ccccc1)NC(=O)[C@@H](NC(=O)CNC(=O)[C@H](CCC(=O)O)NC(=O)C(C)(C)NC(=O)[C@@H](N)Cc1ccc(O)cc1)[C@@H](C)O)[C@@H](C)O)[C@@H](C)CC)C(=O)N[C@@H](CCC(=O)O)C(=O)N[C@@H](CCCCN)C(=O)N[C@@H](CCC(=O)O)C(=O)N[C@@H](C)C(=O)N[C@@H](CCC(N)=O)C(=O)N[C@@H](CCC(N)=O)C(=O)N[C@@H](CC(=O)O)C(=O)N[C@@H](Cc1ccccc1)C(=O)N[C@H](C(=O)N[C@@H](CC(N)=O)C(=O)N[C@@H](Cc1c[nH]c2ccccc12)C(=O)N[C@@H](CC(C)C)C(=O)N[C@@H](CC(C)C)C(=O)N[C@@H](C)C(=O)N[C@@H](CCC(N)=O)C(N)=O)C(C)C [Compound 020] (H-Y[Aib]EGTFTSDYSIY[Nle]EKEAQQDFVNWLLAQ-NH2; N-terminus assumed),EC50,[1],0.27 nM
same,GIP Receptor Relative Potency,[1]; Table 3,51.8
Tyr-Aib-Glu-Gly-Thr-Phe-Thr-Ser-Asp-Tyr-Ser-Ile-Tyr-Met-Glu-Lys-Ile-His-Gln-Gln-Asp-Phe-Val-Asn-Trp-Leu-Leu-Ala-Gln(NH2) (Y[Aib]EGTFTSDYSIYMEKIHQQDFVNWLLAQ-NH2) [Analog 003],GLP-1R activation (GLP-1 activity) against native GLP-1,[2],~0.2%
CC[C@H](C)[C@H](NC(=O)[C@H](CO)NC(=O)[C@H](Cc1ccc(O)cc1)NC(=O)[C@H](CC(=O)O)NC(=O)[C@H](CO)NC(=O)[C@@H](NC(=O)[C@H](Cc1ccccc1)NC(=O)[C@@H](NC(=O)CNC(=O)[C@H](CCC(=O)O)NC(=O)C(C)(C)NC(=O)[C@@H](N)Cc1ccc(O)cc1)[C@@H](C)O)[C@@H](C)O)C(=O)N[C@@H](Cc1ccc(O)cc1)C(=O)N[C@@H](CCSC)C(=O)N[C@@H](CCC(=O)O)C(=O)N[C@@H](CCCCN)C(=O)N[C@H](C(=O)N[C@@H](Cc1c[nH]cn1)C(=O)N[C@@H](CCC(N)=O)C(=O)N[C@@H](CCC(N)=O)C(=O)N[C@@H](CC(=O)O)C(=O)N[C@@H](Cc1ccccc1)C(=O)N[C@H](C(=O)N[C@@H](CC(N)=O)C(=O)N[C@@H](Cc1c[nH]c2ccccc12)C(=O)N[C@@H](CC(C)C)C(=O)N[C@@H](CC(C)C)C(=O)N[C@@H](C)C(=O)N[C@@H](CCC(N)=O)C(N)=O)C(C)C)[C@@H](C)CC [Compound 003] (H-Y[Aib]EGTFTSDYSIYMEKIHQQDFVNWLLAQ-NH2; N-terminus assumed),GIP Receptor Relative Potency,[1]; Table 3,77.7
CCCC[C@H](NC(=O)[C@@H](NC(=O)[C@@H](NC(=O)[C@H](CO)NC(=O)[C@H](Cc1ccc(O)cc1)NC(=O)[C@H](CC(=O)O)NC(=O)[C@H](CO)NC(=O)[C@@H](NC(=O)[C@H](Cc1ccccc1)NC(=O)[C@@H](NC(=O)CNC(=O)[C@H](CCC(=O)O)NC(=O)C(C)(C)NC(=O)[C@@H](N)Cc1ccc(O)cc1)[C@@H](C)O)[C@@H](C)O)[C@@H](C)CC)c1ccccc1)C(=O)N[C@@H](CCC(=O)O)C(=O)N[C@@H](CCCCN)C(=O)N[C@H](C(=O)N[C@@H](Cc1c[nH]cn1)C(=O)N[C@@H](CCC(N)=O)C(=O)N[C@@H](CCC(N)=O)C(=O)N[C@@H](CC(=O)O)C(=O)N[C@@H](Cc1ccccc1)C(=O)N[C@H](C(=O)N[C@@H](CC(N)=O)C(=O)N[C@@H](Cc1c[nH]c2ccccc12)C(=O)N[C@@H](CC(C)C)C(=O)N[C@@H](CC(C)C)C(=O)N[C@@H](C)C(=O)N[C@@H](CCC(N)=O)C(N)=O)C(C)C)[C@@H](C)CC [Compound 009] (H-Y[Aib]EGTFTSDYSI[Phg][Nle]EKIHQQDFVNWLLAQ-NH2; N-terminus assumed),EC50,[2],> 2000 nM
"Tyr-Ala-Glu-Gly-Thr-Phe-Ile-Ser-Asp-Tyr-Ser-Ile-Ala-Met-Asp-Lys-Ile-His-Gln-Gln-Asp-Phe-Val-Asn-Trp-Leu-Leu-Ala-Gln(NH2) (YAEGTFISDYSIAMDKIHQQDFVNWLLAQ-NH2; listed as Homo sapiens) [GIP (1-29), initial scaffold, reference compound]","GIPR activation in vitro, in words","[1]; cAMP induction, liraglutide up to 1 μM",equivalent GIPR activation in vitro to that of the full-length GIP (1-42)
CC[C@H](C)[C@H](NC(=O)[C@H](Cc1ccccc1)NC(=O)[C@H](CCC(=O)O)NC(=O)[C@H](CCCCN)NC(=O)[C@@H](NC(=O)[C@H](C)NC(=O)[C@H](CCC(=O)O)NC(=O)[C@H](CCCCN)NC(=O)[C@H](CCC(=O)O)NC(=O)[C@H](CCSC)NC(=O)[C@H](Cc1ccc(O)cc1)NC(=O)[C@@H](NC(=O)[C@H](CO)NC(=O)[C@H](Cc1ccc(O)cc1)NC(=O)[C@H](CC(=O)O)NC(=O)[C@H](CO)NC(=O)[C@@H](NC(=O)[C@H](Cc1ccccc1)NC(=O)[C@@H](NC(=O)CNC(=O)[C@H](CCC(=O)O)NC(=O)C(C)(C)NC(=O)[C@@H](N)Cc1ccc(O)cc1)[C@@H](C)O)[C@@H](C)O)[C@@H](C)CC)C(C)C)C(=O)N[C@@H](C)C(=O)N[C@@H](Cc1c[nH]c2ccccc12)C(=O)N[C@@H](CC(C)C)C(=O)N[C@H](C(=O)N[C@@H](CCCCN)C(=O)NCC(N)=O)C(C)C [Compound 057] (H-Y[Aib]EGTFTSDYSIYMEKEAVKEFIAWLVKG-NH2; N-terminus assumed),EC50,"[1]; Table 3, CHO hGIPR cells",0.57 nM
same,GIP Receptor Relative Potency,[1]; Table 3,36.8
CC[C@H](C)[C@H](NC(=O)[C@H](Cc1ccccc1)NC(=O)[C@H](CCC(=O)O)NC(=O)[C@H](CCC(=O)O)NC(=O)[C@@H](NC(=O)[C@H](C)NC(=O)[C@H](CCC(=O)O)NC(=O)[C@H](CCCCN)NC(=O)[C@H](CCC(=O)O)NC(=O)[C@H](CCSC)NC(=O)[C@H](Cc1ccc(O)cc1)NC(=O)[C@@H](NC(=O)[C@H](CO)NC(=O)[C@H](Cc1ccc(O)cc1)NC(=O)[C@H](CC(=O)O)NC(=O)[C@H](CO)NC(=O)[C@@H](NC(=O)[C@H](Cc1ccccc1)NC(=O)[C@@H](NC(=O)CNC(=O)[C@H](CCC(=O)O)NC(=O)C(C)(C)NC(=O)[C@@H](N)Cc1ccc(O)cc1)[C@@H](C)O)[C@@H](C)O)[C@@H](C)CC)C(C)C)C(=O)N[C@@H](C)C(=O)N[C@@H](Cc1c[nH]c2ccccc12)C(=O)N[C@@H](CC(C)C)C(=O)N[C@H](C(=O)N[C@@H](CCCCN)C(=O)NCC(N)=O)C(C)C [Compound 053-1] (H-Y[Aib]EGTFTSDYSIYMEKEAVEEFIAWLVKG-NH2; N-terminus assumed),EC50,"[1]; Table 3, CHO hGIPR cells",0.5 nM
same,GIP Receptor Relative Potency,[1]; Table 3,34
